Here are results for twelve compounds from patent publication US20230139171A1 (SITA Information Networking Computing UK Limited, priority 2019, published 2023).

Type in all cases: cell-based
The target of one assay is T1, human TLR8 (Homo sapiens, UniProt Q9NR97).
T1 construct: host or cells: HEK-Blue cells
T1 sequence (Q9NR97 27-1041): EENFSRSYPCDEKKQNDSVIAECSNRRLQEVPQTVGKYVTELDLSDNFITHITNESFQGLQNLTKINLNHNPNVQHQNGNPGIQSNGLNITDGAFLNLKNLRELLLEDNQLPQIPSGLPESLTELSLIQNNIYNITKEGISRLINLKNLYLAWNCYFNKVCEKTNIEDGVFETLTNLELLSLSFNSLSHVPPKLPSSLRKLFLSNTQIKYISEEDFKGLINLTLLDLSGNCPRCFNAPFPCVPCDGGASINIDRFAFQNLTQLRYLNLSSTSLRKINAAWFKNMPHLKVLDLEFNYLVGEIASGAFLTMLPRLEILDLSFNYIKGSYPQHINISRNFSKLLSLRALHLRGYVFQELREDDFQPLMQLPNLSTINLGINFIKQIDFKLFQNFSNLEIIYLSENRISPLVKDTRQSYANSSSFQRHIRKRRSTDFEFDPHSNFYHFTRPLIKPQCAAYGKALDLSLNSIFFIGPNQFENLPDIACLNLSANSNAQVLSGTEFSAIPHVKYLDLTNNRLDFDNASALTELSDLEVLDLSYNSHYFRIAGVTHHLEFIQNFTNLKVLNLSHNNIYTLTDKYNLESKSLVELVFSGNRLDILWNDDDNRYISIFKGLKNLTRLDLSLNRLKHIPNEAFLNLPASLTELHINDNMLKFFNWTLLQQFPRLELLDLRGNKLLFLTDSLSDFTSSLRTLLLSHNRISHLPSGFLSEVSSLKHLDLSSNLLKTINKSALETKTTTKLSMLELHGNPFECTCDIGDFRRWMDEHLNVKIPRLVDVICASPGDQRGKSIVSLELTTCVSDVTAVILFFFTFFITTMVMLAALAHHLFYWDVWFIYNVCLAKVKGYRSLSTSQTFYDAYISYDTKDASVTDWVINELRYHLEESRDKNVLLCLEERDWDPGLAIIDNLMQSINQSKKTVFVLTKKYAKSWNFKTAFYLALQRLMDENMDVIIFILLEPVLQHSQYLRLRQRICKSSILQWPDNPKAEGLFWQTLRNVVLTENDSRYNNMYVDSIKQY
Nature of the assay: TLR8 inhibition reporter assay (HEK-Blue cells, SEAP reporter, R848 stimulation). The note with it: HEK-Blue cells overexpressing human TLR8, SEAP reporter, R848 15.9 μM; read-out: TLR8 IC50. Summed up:
(§1)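 Compound treatment: 30 min, RT, 0.05 nM–50 μM final. Agonist: TLR7 gardiquimod 7.5 μM; TLR8 R848 15.9 μM; TLR9 ODN2006 5 nM. Incubation 22 h, 37 °C, 5% CO2. Readout SEAP, HEK-Blue Detection.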
(In general: A reporter such as luciferase makes a cellular process visible.)

The target in a further assay is T2, human TLR7 (Homo sapiens, UniProt Q9NYK1).
T2 construct: host or cells: HEK-Blue cells
T2 sequence (Q9NYK1 27-1049): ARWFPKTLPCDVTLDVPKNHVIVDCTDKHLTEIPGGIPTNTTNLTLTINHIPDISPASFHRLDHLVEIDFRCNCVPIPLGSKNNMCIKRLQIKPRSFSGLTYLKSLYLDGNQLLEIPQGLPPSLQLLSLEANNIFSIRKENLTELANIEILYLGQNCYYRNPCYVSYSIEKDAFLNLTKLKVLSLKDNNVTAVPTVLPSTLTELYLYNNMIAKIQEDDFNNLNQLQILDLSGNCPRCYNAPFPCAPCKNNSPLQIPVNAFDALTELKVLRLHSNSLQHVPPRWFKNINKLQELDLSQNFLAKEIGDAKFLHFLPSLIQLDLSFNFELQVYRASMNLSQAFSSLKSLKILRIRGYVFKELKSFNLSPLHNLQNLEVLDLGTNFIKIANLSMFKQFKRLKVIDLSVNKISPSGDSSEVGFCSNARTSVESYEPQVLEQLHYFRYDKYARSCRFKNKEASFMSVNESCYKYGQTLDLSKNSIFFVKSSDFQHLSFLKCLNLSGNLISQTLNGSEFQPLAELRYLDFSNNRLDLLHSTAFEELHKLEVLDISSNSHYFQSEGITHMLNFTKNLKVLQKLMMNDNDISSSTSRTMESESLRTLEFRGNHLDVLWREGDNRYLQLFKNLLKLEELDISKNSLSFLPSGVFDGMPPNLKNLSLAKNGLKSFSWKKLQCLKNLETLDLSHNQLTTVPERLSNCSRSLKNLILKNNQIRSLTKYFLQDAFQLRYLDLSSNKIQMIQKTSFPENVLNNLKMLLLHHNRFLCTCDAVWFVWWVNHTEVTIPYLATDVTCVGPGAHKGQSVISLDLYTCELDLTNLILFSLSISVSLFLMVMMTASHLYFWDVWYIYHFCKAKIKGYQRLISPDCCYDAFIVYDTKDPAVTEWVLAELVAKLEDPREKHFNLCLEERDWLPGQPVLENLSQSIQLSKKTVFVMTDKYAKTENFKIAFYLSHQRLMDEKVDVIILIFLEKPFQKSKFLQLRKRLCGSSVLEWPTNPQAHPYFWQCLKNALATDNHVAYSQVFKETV
The assay can be described thus: TLR7 inhibition reporter assay (HEK-Blue cells, SEAP reporter, gardiquimod stimulation). The note with it: HEK-Blue cells overexpressing human TLR7, SEAP reporter, gardiquimod 7.5 μM; read-out: TLR7 IC50. Summed up:
as §1

For another assay, the target named is T3, human TLR9 (Homo sapiens, UniProt Q9NR96).
T3 construct: host or cells: HEK-Blue cells
T3 sequence (Q9NR96 26-1032): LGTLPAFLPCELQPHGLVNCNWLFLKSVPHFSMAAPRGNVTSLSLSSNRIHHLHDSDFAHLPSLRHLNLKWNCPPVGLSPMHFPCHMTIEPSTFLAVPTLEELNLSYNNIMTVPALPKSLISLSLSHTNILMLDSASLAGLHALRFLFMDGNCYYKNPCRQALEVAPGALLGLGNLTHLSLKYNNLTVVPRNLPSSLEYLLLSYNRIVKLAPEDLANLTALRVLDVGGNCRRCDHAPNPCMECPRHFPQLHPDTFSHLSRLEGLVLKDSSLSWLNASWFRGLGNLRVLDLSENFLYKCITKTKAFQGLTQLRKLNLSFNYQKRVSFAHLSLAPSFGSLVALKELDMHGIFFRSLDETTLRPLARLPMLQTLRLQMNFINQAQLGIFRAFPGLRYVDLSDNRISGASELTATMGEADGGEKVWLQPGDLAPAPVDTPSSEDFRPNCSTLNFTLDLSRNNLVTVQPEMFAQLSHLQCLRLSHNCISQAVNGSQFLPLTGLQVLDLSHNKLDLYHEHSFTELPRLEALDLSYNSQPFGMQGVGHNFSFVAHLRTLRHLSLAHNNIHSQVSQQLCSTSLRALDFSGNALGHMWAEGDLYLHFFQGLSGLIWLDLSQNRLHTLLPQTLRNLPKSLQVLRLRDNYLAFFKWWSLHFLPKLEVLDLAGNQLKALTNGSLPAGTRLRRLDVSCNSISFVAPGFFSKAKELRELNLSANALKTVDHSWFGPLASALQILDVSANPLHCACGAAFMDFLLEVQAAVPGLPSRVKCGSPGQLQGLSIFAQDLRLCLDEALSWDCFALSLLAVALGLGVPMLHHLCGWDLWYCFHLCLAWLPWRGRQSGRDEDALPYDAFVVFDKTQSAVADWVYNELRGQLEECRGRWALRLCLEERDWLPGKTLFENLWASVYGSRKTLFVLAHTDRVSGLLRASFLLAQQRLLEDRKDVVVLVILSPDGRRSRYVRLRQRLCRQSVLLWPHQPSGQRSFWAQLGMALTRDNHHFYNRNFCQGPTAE
Nature of the assay: TLR9 inhibition reporter assay (HEK-Blue cells, SEAP reporter, ODN2006 stimulation). Conditions: HEK-Blue cells overexpressing human TLR9, SEAP reporter, ODN2006 5 nM. Summed up:
as §1

By pIC50 is commonly meant the IC50 on a negative log10 scale, so that one unit is a factor of ten.

Each structure is given as a SMILES string. pIC50: −log10 of the molar value.

Turning to `Cc1c(-c2[nH]c3sc(C4CCC(NCC(N)=O)CC4)nc3c2C(C)C)cn2ncnc2c1C` (stereo not drawn) [Example 211, 2-((4-(5-(7,8-dimethyl-[1,2,4]triazolo[1,5-a]pyridin-6-yl)-6-isopropyl-4H-pyrrolo[3,2-d]thiazol-2-yl)cyclohexyl)amino)acetamide], the pIC50 was 9.24 on human TLR8, 9.10 at human TLR7 and 4.85 at human TLR9.

On to `Cc1c(-c2[nH]c3sc(N4CCNCC4)nc3c2C(C)C)cn2ncnc2c1C` [Example 278, 5-(7,8-dimethyl-[1,2,4]triazolo[1,5-a]pyridin-6-yl)-6-isopropyl-2-(piperazin-1-yl)-4H-pyrrolo[3,2-d]thiazole], for which the values for the negative-log IC50 (pIC50) at human TLR8, on human TLR7 and on human TLR9 were 9.48, 8.84 and 4.97, respectively.

For the compound `Cc1c(-c2[nH]c3sc(N4CCNCC4)nc3c2C(C)C)cn(C)c(=O)c1C` [Example 279, 5-(6-isopropyl-2-(piperazin-1-yl)-4H-pyrrolo[3,2-d]thiazol-5-yl)-1,3,4-trimethylpyridin-2(1H)-one], the pIC50 is 8.97 on human TLR8, 7.96 on human TLR7 and 4.62 against human TLR9.

Take `Cc1c(-c2[nH]c3sc(N4CCN(C(=O)CN(C)C)CC4)nc3c2C(C)C)cn2ncnc2c1C` [Example 280, 1-(4-(5-(7,8-dimethyl-[1,2,4]triazolo[1,5-a]pyridin-6-yl)-6-isopropyl-4H-pyrrolo[3,2-d]thiazol-2-yl)piperazin-1-yl)-2-(dimethylamino)ethan-1-one]: the pIC50 on human TLR8 is 9.14; on human TLR7, 8.90; against human TLR9, 5.30.

On to `Cc1c(-c2[nH]c3sc(N4CCN(CC(C)(C)O)CC4)nc3c2C(C)C)cn2ncnc2c1C` [Example 281, 1-(4-(5-(7,8-dimethyl-[1,2,4]triazolo[1,5-a]pyridin-6-yl)-6-isopropyl-4H-pyrrolo[3,2-d]thiazol-2-yl)piperazin-1-yl)-2-methylpropan-2-ol], for which the figures for the pIC50 on human TLR8, at human TLR7 and against human TLR9 were 9.35, 8.02 and 4.37, respectively.

Take `Cc1c(-c2[nH]c3sc(N4CCN(C5CCOCC5)CC4)nc3c2C(C)C)cn2ncnc2c1C` [Example 287, 5-(7,8-dimethyl-[1,2,4]triazolo[1,5-a]pyridin-6-yl)-6-isopropyl-2-(4-(tetrahydro-2H-pyran-4-yl)piperazin-1-yl)-4H-pyrrolo[3,2-d]thiazole]: the results for the pIC50 on human TLR8, at human TLR7 and at human TLR9 were 9.27, 7.88 and 4.54, respectively.

Consider `Cc1c(-c2[nH]c3sc(N4CCN(C(C)C)CC4)nc3c2C(C)C)cn2ncnc2c1C` [Example 288, 5-(7,8-dimethyl-[1,2,4]triazolo[1,5-a]pyridin-6-yl)-6-isopropyl-2-(4-isopropylpiperazin-1-yl)-4H-pyrrolo[3,2-d]thiazole], for which the pIC50 at human TLR8 was 9.28; on human TLR7 it was 7.82; at human TLR9 it was 4.85.

Take `Cc1c(-c2[nH]c3sc(N4CCN(CC5(C)COC5)CC4)nc3c2C(C)C)cn2ncnc2c1C` [Example 289, 5-(7,8-dimethyl-[1,2,4]triazolo[1,5-a]pyridin-6-yl)-6-isopropyl-2-(4-((3-methyloxetan-3-yl)methyl)piperazin-1-yl)-4H-pyrrolo[3,2-d]thiazole]: the values for the pIC50 at human TLR8, at human TLR7 and on human TLR9 were 9.01, 8.28 and 4.71, respectively.

Take `Cc1c(-c2[nH]c3sc(N4CCC(NC5(C)COC5)CC4)nc3c2C(C)C)cn2ncnc2c1C` [Example 290, 1-(5-(7,8-dimethyl-[1,2,4]triazolo[1,5-a]pyridin-6-yl)-6-isopropyl-4H-pyrrolo[3,2-d]thiazol-2-yl)-N-(3-methyloxetan-3-yl)piperidin-4-amine]: the pIC50 on human TLR8 is 8.96; on human TLR7 it was 8.07; at human TLR9, 4.66.

Turning to `Cc1c(-c2[nH]c3sc(N4CCC(NCC(C)(C)O)CC4)nc3c2C(C)C)cn2ncnc2c1C` [Example 291, 1-((1-(5-(7,8-dimethyl-[1,2,4]triazolo[1,5-a]pyridin-6-yl)-6-isopropyl-4H-pyrrolo[3,2-d]thiazol-2-yl)piperidin-4-yl)amino)-2-methylpropan-2-ol], the pIC50 on human TLR8 was 9.41; at human TLR7, 8.12; on human TLR9, 4.77.

On to `Cc1c(-c2[nH]c3sc(N4CCC(N(C)C(C)C)CC4)nc3c2C(C)C)cn2ncnc2c1C` [Example 292, 1-(5-(7,8-dimethyl-[1,2,4]triazolo[1,5-a]pyridin-6-yl)-6-isopropyl-4H-pyrrolo[3,2-d]thiazol-2-yl)-N-isopropyl-N-methylpiperidin-4-amine], for which the figures for the pIC50 on human TLR8, at human TLR7 and at human TLR9 were 9.34, 8.50 and 5.12, respectively.

Turning to `Cc1c(-c2[nH]c3sc(N4CCC(NC5CCC5)CC4)nc3c2C(C)C)cn2ncnc2c1C` [Example 293, N-cyclobutyl-1-(5-(7,8-dimethyl-[1,2,4]triazolo[1,5-a]pyridin-6-yl)-6-isopropyl-4H-pyrrolo[3,2-d]thiazol-2-yl) piperidin-4-amine], the figures for the pIC50 at human TLR8, on human TLR7 and at human TLR9 were 9.42, 8.53 and 5.18, respectively.
